In patent US11458132B2, “Quinolin-2(1H)-one inhibitors of Late SV40 Factor” (TRUSTEES OF BOSTON UNIVERSITY, priority 2020, dated 2022):

Assays:
[1] = target: T1, LSF and β-catenin (Homo sapiens, UniProt Q12800); experiment: Immunoprecipitation of β-catenin probed for LSF in CRC cells; assay type: cell-based; conditions: 1 μM, 16 hours, HT-29 and HCT-116 cells
T1 construct: In both these cell lines, LSF co-immunoprecipitated with β-catenin; endogenous in cells; host or cells: HT-29 and HCT-116
T1 sequence (Q12800 1-502): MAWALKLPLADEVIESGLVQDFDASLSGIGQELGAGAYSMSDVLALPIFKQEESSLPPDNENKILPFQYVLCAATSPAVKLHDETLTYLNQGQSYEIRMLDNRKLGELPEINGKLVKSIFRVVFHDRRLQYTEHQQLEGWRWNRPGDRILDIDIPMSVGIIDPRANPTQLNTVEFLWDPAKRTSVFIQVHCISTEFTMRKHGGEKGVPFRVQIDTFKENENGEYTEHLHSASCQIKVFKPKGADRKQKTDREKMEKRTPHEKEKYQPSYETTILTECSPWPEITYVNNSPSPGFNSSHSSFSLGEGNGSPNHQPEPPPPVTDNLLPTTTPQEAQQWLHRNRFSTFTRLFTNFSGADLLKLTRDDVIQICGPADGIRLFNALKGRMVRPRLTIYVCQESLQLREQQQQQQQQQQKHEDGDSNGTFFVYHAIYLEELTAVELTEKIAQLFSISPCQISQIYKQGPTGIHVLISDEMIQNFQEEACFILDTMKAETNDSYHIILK
Description: Immunoprecipitation: The CRC cells were harvested. Proteins of interest were immunoprecipitated using the indicated antibodies at 1:100 concentration. The eluents were resolved by SDS polyacrylamide gel electrophoresis and probed with the indicated antibodies. All the antibodies for immunoblot and immunoprecipitation were acquired from Cell Signaling and were used at the recommended concentrations.

[2] = Plasma protein binding (PPB), mouse; assay type: in vitro ADME
[3] = Plasma protein binding (PPB), human; assay type: in vitro ADME
[4] = test system: RPE cells; experiment: Microtubule sedimentation assay; assay type: cell-based; conditions: for microtubule stability and α-tubulin acetylation in the microtubule fraction: 4 μM FQI1 (15- and 30-minute pellets), 1 μM nocodazole or taxol 30 minutes
Procedure: (§1) Cell lysate preparation: For microtubule sedimentation assays, cells were treated as indicated in the figure legends, washed with PBS and incubated in 250 μl of microtubule sedimentation assay lysis buffer (100 mM PIPES pH 6.8, 2 M glycerol, 2 mM EGTA, 5 mM MgCl2, 0.1% Triton X-100) supplemented with 1 μM taxol, protease inhibitor cocktail (1:200, Abcam, ab201111) and phosphatase inhibitor cocktail (1:100, Abcam, ab201115) for 20 minutes at 37° C. Two hundred μl of scraped lysate was centrifuged at 21,000×g for 10 minutes at room temperature. Supernatants were saved as soluble fractions. Pellets were resuspended in 200 μl RIPA buffer (50 mM Tris HCl pH 8.0, 150 mM NaCl, 1% IGEPAL CA630, 0.05% deoxycholic acid) supplemented with 1.05% SDS, protease inhibitor cocktail (1:200) and phosphatase inhibitor cocktail (1:100) and incubated at 100° C. for 15 minutes. Pellet suspensions were centrifuged as before and supernatants were saved as pellet fractions.
(§2) Gel electrophoresis and immunoblotting: Microtubule sedimentation fractions and MLC2 analysis samples were separated by electrophoresis through tris-glycine and tricine polyacrylamide gels, respectively, which were transferred to PVDF membranes. Membranes with microtubule sedimentation fractions and MLC2 analysis samples were blocked in 5% milk in TBST and in 5% BSA in TBST, respectively. After overnight incubation with primary antibody at 4° C., the membranes were washed and incubated with secondary antibody for 1 hour at room temperature. Primary antibodies included anti-α-tubulin (1:2,000, Thermo Fisher Scientific, PA529444), anti-acetylated tubulin (1:1,000, Sigma-Aldrich, T7451), anti-phospho MYL9 (1:200, Thermo Fisher Scientific, PA517727), and anti-β-actin (1:5,000, Sigma-Aldrich, A1978). Secondary antibodies included Goat anti-Rabbit HRP (Thermo Fisher Scientific, 31460; 1:10,000 for anti-α-tubulin; 1:5,000 for anti-phospho MYL9), and Goat anti-Mouse HRP (Thermo Fisher Scientific, 62-6520; 1:5,000 for anti-acetylated tubulin; 1:10,000-1:20,000 for anti-β-actin). Membranes were placed into Pierce™ ECL Western Blotting Substrate (Thermo Fisher Scientific, 32106). Autoradiography film was exposed to each membrane for various times to ensure acquisition of non-saturated exposures. Band intensities were quantified from scanned films by densitometry using ImageJ.

[5] = test system: FH-B cells; experiment: Cell spreading area / cell compaction by microscopy; assay type: cell-based, human; conditions: 1 μM nocodazole, 30-60 minutes
Procedure: (§3) Cells were washed as before, treated with Phalloidin-iFluor 488 Reagent (abcam, ab176753) for 1 hour in 1-5% BSA in PBS, followed by Hoechst 33342 (Thermo Fisher Scientific, H3570) for 5 minutes. Mounting medium (Fisher Scientific, P10144) and cover slips were applied onto dried cells. Individually discernible cells were imaged on an Olympus Fluoview 10i. Using ImageJ, the phalloidin channel was thresholded and area and circularity values were measured and integrated into swarmplots using Python's seaborn library.
For time lapse microscopy, FH-B cells in high μ-dishes were incubated with CellBrite™ Steady Membrane stain (Biotium, 30108-T) for 30-40 minutes in the environmental chamber of a Nikon C2 Si microscope at 37° C. and 5% CO2. Treatments were added to the cells through a syringe to reach final concentrations of 4 μM FQI1 or 0.01% DMSO. Immediately thereafter, a time-lapse series was acquired by imaging every 30 seconds for 30 minutes at 20× magnification.

[6] = test system: RPE cells; experiment: Wound healing assay; assay type: cell-based; conditions: 4 μM FQI1 or 1 μM nocodazole, monitored 12 hours
Procedure: Wound healing analysis: Confluent RPE cells were synchronized by incubating with 2 mM thymidine for 18-20 hours. Two intersecting lines were drawn into the confluent cells using a pipette tip. A phase-contrast image was acquired of the intersection point (“0 h” time-point) on an Olympus IX50 inverted microscope, immediately followed by treatment with the respective inhibitor and 2 mM thymidine. Phase-contrast images of the intersection point were acquired every 2 hours for 12 hours, continuing incubation at 37° C. in 5% CO2 in-between time points. Using ImageJ, the distances between each pair of neighboring vertices of the intersection point at each time-point were measured and normalized to the “0 h” sample.
RPE-hTERT Flp-In cells, propagated in DME M:F12 media with 10% fetal bovine serum at 37° C. in a 5% CO2 humidified incubator, were grown to confluence in 6-well tissue culture plates. One day prior to performing the wound healing assay, the medium was exchanged to also include 2 mM thymidine, so that the cells would stop dividing.
A cross-shaped wound was scratched into each well, and the cells imaged by phase contrast microscopy using at 4× magnification using a Olympus IX50 Inverted microscope. Then the cell media was exchanged to include vehicle (DMSO at 0.01%), 50 nM FQI2-34, 100 nM FQI2-34, or 200 nM FQI2-34; 2 mM thymidine was maintained throughout, as well. Cells were imaged again at 2 h, 4h, 6h, and 8h, in order to measure the migration of the cells into the wound.
Each of the 4 lines across the vertices of the “X” were individually measured from each set of images using ImageJ. Relative distances of cell migration into the wound were obtained by subtracting each of the lengths for 2-8 hour timepoints from the length at the 0 hour timepoint for that line and that sample. The averages of the four changes in lengths per sample were then plotted over time for each concentration of FQI2-34, from […], using Prism software. Triplicate technical replicates were performed for each concentration.

[7] = test system: RPE cells; experiment: Cell spreading area and circularity by microscopy; assay type: cell-based; conditions: 4 μM FQI1 or 1 μM nocodazole, 1 hour
Procedure: as §3

[8] = test system: FH-B cells; experiment: Microtubule sedimentation assay; assay type: cell-based, human; conditions: for microtubule stability and α-tubulin acetylation in the microtubule fraction: 4 μM FQI1 (15- and 30-minute pellets), 1 μM nocodazole or taxol 30 minutes
Procedure: as §1, §2

[9] = test system: Huh7 cells; experiment: Growth inhibition curves in Huh7 cells; assay type: cell-based; conditions: Homo sapiens, Huh-7
[10] = test system: RhoA/ROCK pathway in FH-B cells; experiment: Phospho-MLC2 immunoblot (RhoA/ROCK pathway); assay type: cell-based, human; conditions: 1 μM taxol 30 minutes, then 4 μM FQI1 10 minutes
Procedure: For analysis of phosphorylated MLC2, FH-B cells were treated as indicated in the figure legend, washed with PBS and incubated for 5 minutes in lysis buffer (50 mM Tris-HCl pH 8.0, 50 mM NaF, 5 mM MgCl2, 150 mM NaCl, 1% Triton X-100) supplemented with Tricine Sample Buffer (Bio-rad, 1610739), protease inhibitor cocktail (1:200), phosphatase inhibitor cocktail (1:100), and 1% ([…]. Lysates were incubated at 100° C. for 15 minutes and centrifuged at 21,000×g for 10 minutes prior to SDS-PAGE.
as §2, with “Secondary antibodies included Goat anti-Rabbit HRP (Thermo Fisher Scientific, 31460; 1:10,000 for anti-α-tubulin; 1:5,000 for anti-phospho MYL9), and Goat anti-Mouse HRP (Thermo Fisher Scientific, 62-6520; 1:5,000 for anti-acetylated tubulin; 1:10,000-1:20,000 for anti-β-actin). Membranes were placed into Pierce™ ECL Western Blotting Substrate (Thermo Fisher Scientific, 32106). Autoradiography film was exposed to each membrane for various times to ensure acquisition of non-saturated exposures.” left out

[11] = 10 μM Y-27632 30 minutes, then 4 μM FQI1 30 minutes

In the case of `CCOc1cc(N(C)C)ccc1C1CC(=O)Nc2cc3c(cc21)OCCO3` (stereo not shown) [FQI-37, 9-(4-(dimethylamino)-2-ethoxyphenyl)-2,3,8,9-tetrahydro-[1,4]dioxino[2,3-g]quinolin-7(6H)-one], the “interaction of LSF and β-catenin (co-immunoprecipitation)” value [1] is reported as “consistently reduced this interaction”, the fraction unbound [2] is reported as 0.05 and the fraction unbound [3] is reported as 0.07.

With `COC(=O)Nc1nc2ccc(C(=O)c3cccs3)cc2[nH]1` [nocodazole, reference compound] the “microtubule stability and α-tubulin acetylation in the microtubule fraction” value [4] was “destabilizes and deacetylates microtubules”, the “decrease in cell spreading area” value [5] was “decrease in cell spreading area was phenocopied” and the “migration of cells into the wound” value [6] was “hindered RPE cells from migrating into the wound”. For the same compound, the circularity [7] was “significantly more circular in shape” and the “microtubule stability and α-tubulin acetylation in the microtubule fraction” value [8] was “destabilizes and deacetylates microtubules”.

For `CC(C)COc1cc(N(C)C)ccc1-c1cc(=O)[nH]c2cc3c(cc12)OCO3` [FQI2-234, 8-(4-(dimethylamino)-2-isobutoxyphenyl)-[1,3]dioxolo[4,5-g]quinolin-6(5H)-one], the GI50 [9] was 630 nM.

`CCCOc1cc(N(C)C)ccc1-c1cc(=O)[nH]c2cc3c(cc12)OCO3` [FQI2-134, 8-(4-(dimethylamino)-2-propoxyphenyl)-[1,3]dioxolo[4,5-g]quinolin-6(5H)-one] showed a GI50 [9] of 260 nM.

Compound `CCOc1cc(C(F)(F)F)ccc1-c1cc(=O)[nH]c2cc3c(cc12)OCO3` [FQI2F3, 8-(2-ethoxy-4-(trifluoromethyl)phenyl)-[1,3]dioxolo[4,5-g]quinolin-6(5H)-one] has a GI50 [9] of 56.2 nM.

Compound `CCOc1cc(Cl)ccc1-c1cc(=O)[nH]c2cc3c(cc12)OCO3` [FQI2Cl, 8-(2-ethoxy-4-chlorophenyl)-[1,3]dioxolo[4,5-g]quinolin-6(5H)-one] has a GI50 [9] of 56.2 nM.

Work on `CCOc1cc(N(C)C)ccc1-c1cc(=O)[nH]c2cc3c(cc12)OCCO3` [FQI2-37, 9-(4-(dimethylamino)-2-ethoxyphenyl)-2,3-dihydro-[1,4]dioxino[2,3-g]quinolin-7(6H)-one] yielded a fraction unbound [2] of 0.06, a GI50 [9] of 14.2 nM and a fraction unbound [3] of 0.08.

`CCOc1cc(Br)ccc1-c1cc(=O)[nH]c2cc3c(cc12)OCO3` [FQI2Br, 8-(4-bromo-2-ethoxyphenyl)-[1,3]dioxolo[4,5-g]quinolin-6(5H)-one] showed a GI50 [9] of 20.4 nM.

In the case of `CC(=O)O[C@H]1C(=O)[C@@]2(C)[C@H]([C@H](OC(=O)c3ccccc3)[C@]3(O)C[C@H](OC(=O)[C@H](O)[C@@H](NC(=O)c4ccccc4)c4ccccc4)C(C)=C1C3(C)C)[C@]1(OC(C)=O)CO[C@@H]1C[C@@H]2O` [taxol], the “microtubule stability and α-tubulin acetylation in the microtubule fraction” value [4] is reported as “stabilizes and hyperacetylates microtubules”, the “FQI1-induced increase in MLC2 phosphorylation after taxol preincubation” value [10] is reported as “abrogated” and the “microtubule stability and α-tubulin acetylation in the microtubule fraction” value [8] is reported as “stabilizes and hyperacetylates microtubules”.

Compound `CCOc1ccccc1-c1cc(=O)[nH]c2cc3c(cc12)OCO3` [FQI2] has a GI50 [9] of 141 nM.

In the case of `CC(C)COc1cc(N(C)C)ccc1-c1cc(=O)[nH]c2cc3c(cc12)OCCO3` [FQI2-237, 9-(4-(dimethylamino)-2-isobutoxyphenyl)-2,3-dihydro-[1,4]dioxino[2,3-g]quinolin-7(6H)-one], the GI50 [9] is reported as 467 nM.

`CCCOc1cc(N(C)C)ccc1-c1cc(=O)[nH]c2cc3c(cc12)OCCO3` [FQI2-137, 9-(4-(dimethylamino)-2-propoxyphenyl)-2,3-dihydro-[1,4]dioxino[2,3-g]quinolin-7(6H)-one] showed a GI50 [9] of 71 nM.

For `C[C@@H](N)[C@H]1CC[C@H](C(=O)Nc2ccncc2)CC1` [Y-27632], the “FQI1-induced decline in stable microtubules after Y-27632 pre-exposure” value [4, 11] was “quantitatively the same decline in stable microtubules as seen in control cells” and the “FQI1-induced decline in stable microtubules after Y-27632 pre-exposure” value [8, 11] was “quantitatively the same decline in stable microtubules as seen in control cells”.

Work on `CCOc1cc(F)ccc1-c1cc(=O)[nH]c2cc3c(cc12)OCO3` [FQI2F, 8-(2-ethoxy-4-fluorophenyl)-[1,3]dioxolo[4,5-g]quinolin-6(5H)-one] yielded a GI50 [9] of 56.2 nM.

In the case of `CCOc1cc(N(C)C)ccc1C1CC(=O)Nc2cc3c(cc21)OCO3` (stereo not shown) [FQI-34, 8-(4-(dimethylamino)-2-ethoxyphenyl)-7,8-dihydro-[1,3]dioxolo[4,5-g]quinolin-6(5H)-one], the “interaction of LSF and β-catenin (co-immunoprecipitation)” value [1] is reported as “consistently reduced this interaction”, the fraction unbound [2] is reported as 0.05 and the fraction unbound [3] is reported as 0.07.
